{"source": "paper PMC4573853", "about": "(Genes & Development, 2015)", "key": {"[1]": {"system": "taf14Δ strain (BY4741 background)", "experiment": "Spotting assay on 6-azauracil medium", "format": "cell-based, S. cerevisiae", "details": "Fig. 4F"}, "[2]": {"system": "taf14Δ cells", "details": "ref Zhang et al. 2004; cited from earlier work"}, "[3]": {"system": "taf14Δ cells", "experiment": "Spotting assay, sensitivity to DNA-damaging agents", "format": "cell-based, S. cerevisiae", "details": "Supplemental Fig. S3D"}, "[4]": {"target": "T1, Taf14 YEATS (residues 1–132) (Saccharomyces cerevisiae, UniProt P35189)", "T1 sequence (P35189 1-132)": "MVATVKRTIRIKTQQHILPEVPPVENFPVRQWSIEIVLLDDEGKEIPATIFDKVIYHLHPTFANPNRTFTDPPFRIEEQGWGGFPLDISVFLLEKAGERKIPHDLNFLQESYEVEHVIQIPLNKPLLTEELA", "experiment": "NMR chemical shift perturbation", "format": "binding, S. cerevisiae", "details": "for amide resonance changes / interaction: 15N-labeled Taf14 YEATS (1–132), peptide titration"}, "[5]": {"system": "Yaf9 YEATS domain", "details": "capacity to bind in vitro; ref Li et al. 2014; cited from earlier work"}, "[6]": {"details": "1H,15N HSQC, Supplemental Fig. S2A"}}, "note": "No end group written: not given here."}
{"molecule": "O=c1cn[nH]c(=O)[nH]1", "note": "[6-AU, 6-azauracil]", "values": [{"measurement": "rescue of 6-AU growth by taf14W81A", "setting": "[1]; taf14Δ expressing taf14W81A", "result": "unable to rescue"}, {"measurement": "rescue of 6-AU sickness by exogenous TAF14", "setting": "[1]; taf14Δ expressing wild-type TAF14", "result": "could rescue"}]}
{"molecule": "NC(=O)NO", "note": "[HU, hydroxyurea]", "values": [{"measurement": "sensitivity of taf14Δ cells", "setting": "[2]", "result": "sensitive"}, {"measurement": "sensitivity of taf14Δ strain", "setting": "[3]", "result": "sensitivity"}]}
{"molecule": "COS(C)(=O)=O", "note": "[MMS, methane methylsulfonate]", "values": [{"measurement": "sensitivity of taf14Δ cells", "setting": "[2]", "result": "sensitive"}, {"measurement": "effect of Taf14 YEATS disruption on response to agent", "setting": "[3]; taf14Δ expressing taf14W81A", "result": "significantly impaired the response"}]}
{"molecule": "CC(=O)NCCCC[C@H](N)C(=O)O", "note": "[acetylated lysine]", "values": [{"measurement": "amide resonance changes / interaction", "setting": "[4]; 1H,15N HSQC", "result": "CSPs primarily in an acetyllysine-binding pocket"}]}
{"molecule": "H3K9ac1–12: H3K9ac1–12 peptide", "values": [{"measurement": "amide resonance changes / interaction", "setting": "[4]; 1H,15N HSQC", "result": "strong interaction"}]}
{"molecule": "H3K9ac5–13: H3K9ac5–13 peptide (Ac-QTARK(Ac)STGG)", "values": [{"measurement": "binding relative to H3K9ac1–12", "setting": "[4]; [6]", "result": "slightly decreased"}, {"measurement": "resonance perturbation pattern relative to H3K9ac1–12", "setting": "[4]; [6]", "result": "nearly identical resonance perturbation pattern"}]}
{"molecule": "H3K27ac21–31: H3K27ac21–31 peptide (ATKAARK(Ac)SAPA)", "values": [{"measurement": "CSP magnitude relative to H3K9ac", "setting": "[4]; 1H,15N HSQC, Supplemental Fig. S2B", "result": "smaller in magnitude"}, {"measurement": "binding relative to H3K9ac", "setting": "[4]; inferred from CSP magnitude, Supplemental Fig. S2B", "result": "weaker"}]}
{"molecule": "H3K27ac: H3 peptide acetylated at Lys27 (ATKAARK(Ac)SAPA)", "values": [{"measurement": "preference of Yaf9 YEATS domain", "setting": "[5]", "result": "capacity to bind"}]}
{"molecule": "phleomycin", "values": [{"measurement": "sensitivity of taf14Δ strain", "setting": "[3]", "result": "sensitivity"}]}
